{"source": "patent US11952611B2", "about": "“Methods and systems for detection of antibiotic resistance” (Laboratory Corporation of America Holdings, priority 2017, dated 2024)", "key": {"12600 MSSA": {"tested_on": "12600 MSSA", "test": "Effect of duration of antibiotic and phage exposure on MSSA signal (Table 5)", "type": "cell-based, Staphylococcus aureus", "protocol": "Bacterial strains were serially diluted and transferred to a 96-well plate at 135 μL per well. 15 μL of cefoxitin was added to the wells to reach a final concentration of 1.8 μg/mL, 3.6 μg/mL, or 5.4 μg/mL. The plate was then sealed and incubated at 37° C. for 2 hours or 3 hours. 10 μL of recombinant phage (1.6×10^8 pfu/mL) was added to each well. The plate was then re-sealed and incubated at 37° C. for an additional 1 or 2 hours. A master mix was made containing 15 μL 5× lysis buffer, 50 μL luciferase assay buffer, and 1 μL luciferase substrate per well. 65 μL of master mix was added to each well. Luminescence from the reactions was read on a GLOMAX® Navigator and relative luminal units (RLU) for each reaction were plotted and analyzed. RLU values three times greater than an established background RLU level for LB (>750 RLU) were considered positive. The results, shown in Table 5, indicate that the number of MSSA strains producing false-positives at the previously established cut-off of 1.8 μg/mL cefoxitin were reduced with a 3-hour antibiotic/1-hour phage protocol when compared to a 2-hour antibiotic/2-hour phage protocol. A false positive occurred at 541 CFU with the 2-hour antibiotic/2-hour phage protocol. Whereas, the 3-hour antibiotic/1-hour phage protocol produced false positives at 4331 CFU. Positive results are in bold. In Table 5, CFU values (541 CFU and 305 CFU) were experimentally validated by direct plating."}, "[1]": {"tested_on": "BAA-1720 - MRSA in co-culture with 12600 - MSSA", "test": "Table 6, MRSA in co-culture with MSSA", "type": "cell-based, Staphylococcus aureus", "protocol": "Bacterial strains were serially diluted and transferred to a 96-well plate at 135 μL per well. 15 μL of cefoxitin was added to the wells to reach a final concentration of 1.8 μg/mL. The plate was then sealed and incubated at 37° C. for 2 hours or 3 hours. 10 μL of recombinant phage (1.6×10^8 pfu/mL) was added to each well. The plate was then re-sealed and incubated at 37° C. for an additional 1 or 2 hours. A master mix was made containing 15 μL 5× lysis buffer, 50 μL luciferase assay buffer, and 1 μL luciferase substrate per well. 65 μL of master mix was added to each well. Luminescence from the reactions was read on a GLOMAX® Navigator and relative luminal units (RLU) for each reaction were plotted and analyzed. RLU values three times greater than an established background RLU level for LB (>750 RLU) were considered positive. The results, shown in Table 6, indicate that samples with MRSA (38 CFU) can be distinguished from samples containing MSSA (up to 5088 CFU) using a 3-hour antibiotic/1-hour phage incubation protocol. Positive results are in bold. In Table 6, CFU values (318 CFU and 156 CFU) were experimentally validated by direct plating."}, "[2]": {"conditions": "MSSA detected CFU 1272, MRSA 38"}, "[3]": {"conditions": "MSSA detected CFU 2544, MRSA 38"}, "[4]": {"conditions": "MSSA detected CFU 5088, MRSA 38"}, "[5]": {"conditions": "MSSA detected CFU 10176, MRSA 38"}}}
{"smiles": "CO[C@@]1(NC(=O)Cc2cccs2)C(=O)N2C(C(=O)O)=C(COC(N)=O)CS[C@@H]21", "note": "[Cefoxitin, cefoxitin]", "values": [{"measurement": "Cefoxitin (RLU) - 2 Hour Antibiotic + 2 Hour Phage 1.8 ug/mL", "setting": "12600 MSSA; detected CFU 305", "result": 600, "unit": "RLU"}, {"measurement": "Cefoxitin (RLU) - 2 Hour Antibiotic + 2 Hour Phage 3.6 ug/mL", "setting": "12600 MSSA; detected CFU 305", "result": 225, "unit": "RLU"}, {"measurement": "Cefoxitin (RLU) - 2 Hour Antibiotic + 2 Hour Phage 5.4 ug/mL", "setting": "12600 MSSA; detected CFU 305", "result": 244, "unit": "RLU"}, {"measurement": "Cefoxitin (RLU) - 3 Hour Antibiotic + 1 Hour Phage 1.8 ug/mL", "setting": "12600 MSSA; detected CFU 305", "result": 267, "unit": "RLU"}, {"measurement": "Cefoxitin (RLU) - 3 Hour Antibiotic + 1 Hour Phage 3.6 ug/mL", "setting": "12600 MSSA; detected CFU 305", "result": 198, "unit": "RLU"}, {"measurement": "Cefoxitin (RLU) - 3 Hour Antibiotic + 1 Hour Phage 5.4 ug/mL", "setting": "12600 MSSA; detected CFU 305", "result": 184, "unit": "RLU"}, {"measurement": "Cefoxitin (RLU) - 2 Hour Antibiotic + 2 Hour Phage 1.8 ug/mL", "setting": "12600 MSSA; detected CFU 541", "result": 1065, "unit": "RLU"}, {"measurement": "Cefoxitin (RLU) - 2 Hour Antibiotic + 2 Hour Phage 3.6 ug/mL", "setting": "12600 MSSA; detected CFU 541", "result": 224, "unit": "RLU"}, {"measurement": "Cefoxitin (RLU) - 2 Hour Antibiotic + 2 Hour Phage 5.4 ug/mL", "setting": "12600 MSSA; detected CFU 541", "result": 217, "unit": "RLU"}, {"measurement": "Cefoxitin (RLU) - 3 Hour Antibiotic + 1 Hour Phage 1.8 ug/mL", "setting": "12600 MSSA; detected CFU 541", "result": 258, "unit": "RLU"}, {"measurement": "Cefoxitin (RLU) - 3 Hour Antibiotic + 1 Hour Phage 3.6 ug/mL", "setting": "12600 MSSA; detected CFU 541", "result": 215, "unit": "RLU"}, {"measurement": "Cefoxitin (RLU) - 3 Hour Antibiotic + 1 Hour Phage 5.4 ug/mL", "setting": "12600 MSSA; detected CFU 541", "result": 171, "unit": "RLU"}, {"measurement": "Cefoxitin (RLU) - 2 Hour Antibiotic + 2 Hour Phage 1.8 ug/mL", "setting": "12600 MSSA; detected CFU 1083", "result": 1718, "unit": "RLU"}, {"measurement": "Cefoxitin (RLU) - 2 Hour Antibiotic + 2 Hour Phage 3.6 ug/mL", "setting": "12600 MSSA; detected CFU 1083", "result": 395, "unit": "RLU"}, {"measurement": "Cefoxitin (RLU) - 2 Hour Antibiotic + 2 Hour Phage 5.4 ug/mL", "setting": "12600 MSSA; detected CFU 1083", "result": 277, "unit": "RLU"}, {"measurement": "Cefoxitin (RLU) - 3 Hour Antibiotic + 1 Hour Phage 1.8 ug/mL", "setting": "12600 MSSA; detected CFU 1083", "result": 415, "unit": "RLU"}, {"measurement": "Cefoxitin (RLU) - 3 Hour Antibiotic + 1 Hour Phage 3.6 ug/mL", "setting": "12600 MSSA; detected CFU 1083", "result": 201, "unit": "RLU"}, {"measurement": "Cefoxitin (RLU) - 3 Hour Antibiotic + 1 Hour Phage 5.4 ug/mL", "setting": "12600 MSSA; detected CFU 1083", "result": 208, "unit": "RLU"}, {"measurement": "Cefoxitin (RLU) - 2 Hour Antibiotic + 2 Hour Phage 1.8 ug/mL", "setting": "12600 MSSA; detected CFU 2165", "result": 3046, "unit": "RLU"}, {"measurement": "Cefoxitin (RLU) - 2 Hour Antibiotic + 2 Hour Phage 3.6 ug/mL", "setting": "12600 MSSA; detected CFU 2165", "result": 424, "unit": "RLU"}, {"measurement": "Cefoxitin (RLU) - 2 Hour Antibiotic + 2 Hour Phage 5.4 ug/mL", "setting": "12600 MSSA; detected CFU 2165", "result": 331, "unit": "RLU"}, {"measurement": "Cefoxitin (RLU) - 3 Hour Antibiotic + 1 Hour Phage 1.8 ug/mL", "setting": "12600 MSSA; detected CFU 2165", "result": 604, "unit": "RLU"}, {"measurement": "Cefoxitin (RLU) - 3 Hour Antibiotic + 1 Hour Phage 3.6 ug/mL", "setting": "12600 MSSA; detected CFU 2165", "result": 218, "unit": "RLU"}, {"measurement": "Cefoxitin (RLU) - 3 Hour Antibiotic + 1 Hour Phage 5.4 ug/mL", "setting": "12600 MSSA; detected CFU 2165", "result": 202, "unit": "RLU"}, {"measurement": "Cefoxitin (RLU) - 2 Hour Antibiotic + 2 Hour Phage 1.8 ug/mL", "setting": "12600 MSSA; detected CFU 4331", "result": 5703, "unit": "RLU"}, {"measurement": "Cefoxitin (RLU) - 2 Hour Antibiotic + 2 Hour Phage 3.6 ug/mL", "setting": "12600 MSSA; detected CFU 4331", "result": 563, "unit": "RLU"}, {"measurement": "Cefoxitin (RLU) - 2 Hour Antibiotic + 2 Hour Phage 5.4 ug/mL", "setting": "12600 MSSA; detected CFU 4331", "result": 487, "unit": "RLU"}, {"measurement": "Cefoxitin (RLU) - 3 Hour Antibiotic + 1 Hour Phage 1.8 ug/mL", "setting": "12600 MSSA; detected CFU 4331", "result": 933, "unit": "RLU"}, {"measurement": "Cefoxitin (RLU) - 3 Hour Antibiotic + 1 Hour Phage 3.6 ug/mL", "setting": "12600 MSSA; detected CFU 4331", "result": 196, "unit": "RLU"}, {"measurement": "Cefoxitin (RLU) - 3 Hour Antibiotic + 1 Hour Phage 5.4 ug/mL", "setting": "12600 MSSA; detected CFU 4331", "result": 194, "unit": "RLU"}, {"measurement": "Cefoxitin (RLU) - 2 Hour Antibiotic + 2 Hour Phage 1.8 ug/mL", "setting": "12600 MSSA; detected CFU 8662", "result": 11570, "unit": "RLU"}, {"measurement": "Cefoxitin (RLU) - 2 Hour Antibiotic + 2 Hour Phage 3.6 ug/mL", "setting": "12600 MSSA; detected CFU 8662", "result": 1224, "unit": "RLU"}, {"measurement": "Cefoxitin (RLU) - 2 Hour Antibiotic + 2 Hour Phage 5.4 ug/mL", "setting": "12600 MSSA; detected CFU 8662", "result": 979, "unit": "RLU"}, {"measurement": "Cefoxitin (RLU) - 3 Hour Antibiotic + 1 Hour Phage 1.8 ug/mL", "setting": "12600 MSSA; detected CFU 8662", "result": 1563, "unit": "RLU"}, {"measurement": "Cefoxitin (RLU) - 3 Hour Antibiotic + 1 Hour Phage 3.6 ug/mL", "setting": "12600 MSSA; detected CFU 8662", "result": 247, "unit": "RLU"}, {"measurement": "Cefoxitin (RLU) - 3 Hour Antibiotic + 1 Hour Phage 5.4 ug/mL", "setting": "12600 MSSA; detected CFU 8662", "result": 224, "unit": "RLU"}, {"measurement": "Cefoxitin (RLU) - 2 Hour Antibiotic + 2 Hour Phage 1.8 ug/mL", "setting": "12600 MSSA; detected CFU 17323", "result": 22890, "unit": "RLU"}, {"measurement": "Cefoxitin (RLU) - 2 Hour Antibiotic + 2 Hour Phage 3.6 ug/mL", "setting": "12600 MSSA; detected CFU 17323", "result": 2071, "unit": "RLU"}, {"measurement": "Cefoxitin (RLU) - 2 Hour Antibiotic + 2 Hour Phage 5.4 ug/mL", "setting": "12600 MSSA; detected CFU 17323", "result": 1493, "unit": "RLU"}, {"measurement": "Cefoxitin (RLU) - 3 Hour Antibiotic + 1 Hour Phage 1.8 ug/mL", "setting": "12600 MSSA; detected CFU 17323", "result": 2695, "unit": "RLU"}, {"measurement": "Cefoxitin (RLU) - 3 Hour Antibiotic + 1 Hour Phage 3.6 ug/mL", "setting": "12600 MSSA; detected CFU 17323", "result": 255, "unit": "RLU"}, {"measurement": "Cefoxitin (RLU) - 3 Hour Antibiotic + 1 Hour Phage 5.4 ug/mL", "setting": "12600 MSSA; detected CFU 17323", "result": 246, "unit": "RLU"}, {"measurement": "2 HR AB + 2 HR Phage 1.8 ug/mL", "setting": "[1]; MSSA detected CFU 156, MRSA 38", "result": 5084, "unit": "RLU"}, {"measurement": "3 HR AB + 1 HR Phage 1.8 ug/mL", "setting": "[1]; MSSA detected CFU 156, MRSA 38", "result": 3976, "unit": "RLU"}, {"measurement": "2 HR AB + 2 HR Phage 1.8 ug/mL", "setting": "[1]; MSSA detected CFU 318, MRSA 38", "result": 7143, "unit": "RLU"}, {"measurement": "3 HR AB + 1 HR Phage 1.8 ug/mL", "setting": "[1]; MSSA detected CFU 318, MRSA 38", "result": 4567, "unit": "RLU"}, {"measurement": "2 HR AB + 2 HR Phage 1.8 ug/mL", "setting": "[1]; MSSA detected CFU 636, MRSA 38", "result": 7217, "unit": "RLU"}, {"measurement": "3 HR AB + 1 HR Phage 1.8 ug/mL", "setting": "[1]; MSSA detected CFU 636, MRSA 38", "result": 3946, "unit": "RLU"}, {"measurement": "2 HR AB + 2 HR Phage 1.8 ug/mL", "setting": "[1]; [2]", "result": 6263, "unit": "RLU"}, {"measurement": "3 HR AB + 1 HR Phage 1.8 ug/mL", "setting": "[1]; [2]", "result": 4930, "unit": "RLU"}, {"measurement": "2 HR AB + 2 HR Phage 1.8 ug/mL", "setting": "[1]; [3]", "result": 10730, "unit": "RLU"}, {"measurement": "3 HR AB + 1 HR Phage 1.8 ug/mL", "setting": "[1]; [3]", "result": 3749, "unit": "RLU"}, {"measurement": "2 HR AB + 2 HR Phage 1.8 ug/mL", "setting": "[1]; [4]", "result": 11400, "unit": "RLU"}, {"measurement": "3 HR AB + 1 HR Phage 1.8 ug/mL", "setting": "[1]; [4]", "result": 3548, "unit": "RLU"}, {"measurement": "2 HR AB + 2 HR Phage 1.8 ug/mL", "setting": "[1]; [5]", "result": 13260, "unit": "RLU"}, {"measurement": "3 HR AB + 1 HR Phage 1.8 ug/mL", "setting": "[1]; [5]", "result": 5347, "unit": "RLU"}]}
